Laboratory results published in patent US20230339836A1, “METHOD FOR PRODUCING REDUCED COENZYME Q10 FORM II CRYSTALS” (KANEKA CORPORATION, priority 2020, published 2023).

Legend:
[1] = compared with Form I-type crystal; Patent Literature 4; cited from earlier work
[2] = Saturated concentration calculated from Expressions 3 to 8 for 99.5% (v/v) ethanol; type: physicochemical; conditions: calculated by Expressions 7 and 8, natural logarithm
Excerpt: Further, the ethanol concentration of 99.5% (v/v) was assigned to Z of Expressions 3, 4, 5, and 6 to obtain the values of the constants AI, BI, AII, and BII. Using these constants, the Log CI of the saturated concentration CI (% by weight) of the Form I-type crystal and the Log CII of the saturated concentration CII (% by weight) of the Form II-type crystal were obtained at each temperature (converting the unit to Kelvin) shown in Table 5 according to Expressions 7 and 8 above.

[3] = Solubility (saturated concentration) of reduced coenzyme Q10 crystals in hydrous ethanol, HPLC of filtered liquid phase; type: physicochemical
Protocol: The dissolved concentration of reduced coenzyme Q10 in a liquid phase was measured by analyze a liquid phase sample by high performance liquid chromatography under the following conditions.
• Column: SYMMETRY C18 (manufactured by Waters); 250 mm (length), 4.6 mm (inner diameter) • Mobile phase: C2H5OH:CH3OH=4:3 (v:v) • Detection wavelength: 210 nm • Flow rate: 1 ml/min • Retention time of reduced coenzyme Q10: 9.1 min.
The solubility (saturated concentration) (% by weight) of each of a reduced coenzyme Q10 Form I-type crystal (Form I-type crystal) and a reduced coenzyme Q10 Form II-type crystal (Form II-type crystal) in hydrous ethanol with an ethanol concentration per total volume of 99.5% (v/v), 95% (v/v), and 90% (v/v) at temperatures of 298.15K (25° C.), 303.15K (30° C.), 308.15K (35° C.), and 313.15K (40° C.) was obtained.
The solubility was measured by the following procedures.
To approximately 30 g of each hydrous ethanol, approximately 10 g of a Form I-type crystal or a Form II-type crystal was added, the mixture was stirred under a nitrogen atmosphere and maintained for approximately 1 hour at temperatures of 25° C., 30° C., 35° C., and 40° C. Sampling was performed at each temperature and each sample was filtered quickly to obtain a liquid phase sample. Each sample was analyzed under the above HPLC conditions and the solubility was calculated.

[4] = compared with oxidized coenzyme Q10; cited from earlier work
[5] = 90% (v/v) ethanol, 298.15 K (25° C.)
[6] = 90% (v/v) ethanol, 303.15 K (30° C.)
[7] = 90% (v/v) ethanol, 308.15 K (35° C.)
[8] = 90% (v/v) ethanol, 313.15 K (40° C.)
[9] = 95% (v/v) ethanol, 298.15 K (25° C.)
[10] = 95% (v/v) ethanol, 303.15 K (30° C.)
[11] = 95% (v/v) ethanol, 308.15 K (35° C.)
[12] = 95% (v/v) ethanol, 313.15 K (40° C.)
[13] = 99.5% (v/v) ethanol, 298.15 K (25° C.)
[14] = 99.5% (v/v) ethanol, 303.15 K (30° C.)
[15] = 99.5% (v/v) ethanol, 308.15 K (35° C.)
[16] = 99.5% (v/v) ethanol, 313.15 K (40° C.)

SMILES | Stability of crystal form [1] | Log of saturated concentration (% by weight) ([2]; 10° C.) | Log of saturated concentration (% by weight) ([2]; 20° C.) | Log of saturated concentration (% by weight) ([2]; 25° C.) | Log of saturated concentration (% by weight) ([2]; 30° C.) | Log of saturated concentration (% by weight) ([2]; 35° C.) | Solubility [3, 5] | Solubility [3, 6] | Solubility [3, 7] | Solubility [3, 8] | Solubility [3, 9] | Solubility [3, 10] | Solubility [3, 11] | Solubility [3, 12] | Solubility [3, 13] | Solubility [3, 14] | Solubility [3, 15] | Solubility [3, 16] | Oral absorbability [4] | Solubility compared between crystal forms ([3]; hydrous ethanol with any concentration (99.5, 95, 90% v/v))
COc1c(O)c(C)c(C/C=C(\C)CC/C=C(\C)CC/C=C(\C)CC/C=C(\C)CC/C=C(\C)CC/C=C(\C)CC/C=C(\C)CC/C=C(\C)CC/C=C(\C)CCC=C(C)C)c(O)c1OC [Form II, reduced coenzyme Q10] | much more stable than the conventional reduced coenzyme Q10 | −3.858 | −2.145 | −1.288 | −0.432 | 0.425 | 0.10 % by weight | 0.13 % by weight | 0.23 % by weight | 0.41 % by weight | 0.37 % by weight | 0.52 % by weight | 0.86 % by weight | 2.81 % by weight | 1.22 % by weight | 2.32 % by weight | 5.51 % by weight | 17.9 % by weight | – | –
COc1c(O)c(C)c(C/C=C(\C)CC/C=C(\C)CC/C=C(\C)CC/C=C(\C)CC/C=C(\C)CC/C=C(\C)CC/C=C(\C)CC/C=C(\C)CC/C=C(\C)CCC=C(C)C)c(O)c1OC [reduced coenzyme Q10] | – | – | – | – | – | – | – | – | – | – | – | – | – | – | – | – | – | – | higher oral absorbability than that of oxidized coenzyme Q10 | –
COc1c(O)c(C)c(C/C=C(\C)CC/C=C(\C)CC/C=C(\C)CC/C=C(\C)CC/C=C(\C)CC/C=C(\C)CC/C=C(\C)CC/C=C(\C)CC/C=C(\C)CCC=C(C)C)c(O)c1OC [Form I, reduced coenzyme Q10] | – | −2.686 | −0.584 | 0.467 | 1.517 | 2.568 | 0.13 % by weight | 0.18 % by weight | 0.29 % by weight | 0.88 % by weight | 0.65 % by weight | 1.01 % by weight | 2.33 % by weight | 8.98 % by weight | 2.01 % by weight | 4.53 % by weight | 12.6 % by weight | 46.3 % by weight | – | higher than that of the Form II-type crystal
